Assay results taken from publication PMC6013238, “Development of novel NEMO-binding domain mimetics for inhibiting IKK/NF-κB activation” (PLoS Biology, 2018).
Several values for one entry are separate records, joined by “and”; a condition that tells them apart may be missing. Equal entries are not always repeated.

Tests used:
[1] = target: T1, GST-NEMO and FLAG-IKKβ (Homo sapiens, UniProt Q9Y6K9); experiment: IKKβ-NEMO binding assay (GST pull-down, recombinant proteins); conditions: at 12.5 μM; 15 nM each protein
T1 construct: Recombinant full-length NEMO tagged with GST at the N-terminus; purchased SignalChem (GST-NEMO); Origene (IKKβ-FLAG)
T1 sequence (Q9Y6K9 whole entry): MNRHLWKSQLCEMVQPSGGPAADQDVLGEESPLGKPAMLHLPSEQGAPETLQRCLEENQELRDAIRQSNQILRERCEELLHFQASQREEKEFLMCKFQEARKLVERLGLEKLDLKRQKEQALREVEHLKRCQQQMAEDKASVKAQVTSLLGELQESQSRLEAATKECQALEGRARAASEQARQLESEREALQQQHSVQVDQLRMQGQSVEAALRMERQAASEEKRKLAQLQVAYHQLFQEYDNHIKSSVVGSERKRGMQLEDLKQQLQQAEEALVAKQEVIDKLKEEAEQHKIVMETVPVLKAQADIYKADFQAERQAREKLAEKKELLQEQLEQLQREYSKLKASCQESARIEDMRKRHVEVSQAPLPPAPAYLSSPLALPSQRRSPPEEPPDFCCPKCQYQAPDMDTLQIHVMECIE
Procedure: To determine whether the novel NBD mimetics target the NEMO-IKKβ interaction in vivo, co-immunoprecipitations were performed using extracts from Raw 264.7 macrophages (Fig 5A). […] No interaction between NEMO and TNF receptor-associated factor 2 (TRAF2) or IκBα was observed under these conditions. […] The levels of phosphorylated IKK complex, IκBα, and p65 in response to TNF-α and LPS were all reduced by SR12343 (Fig 5D & 5E). […] However, there were no changes in the levels of phospho-c-Jun N-terminal kinase (p-JNK), p-p38MAPK, total JNK, and p38MAPK by treatment with SR12343 (150 μM) in response to TNF-α or LPS stimulation (Fig 5G & 5H). […]
(A) Co-IP analysis detecting the IKKβ/NEMO interaction. […] NEMO-binding products were then analyzed for levels of IKKβ, IKKα, TRAF2, and IκBα (negative control), and levels of NEMO were used as a loading control (left panel). […] The levels of IKKβ-FLAG binding to GST-NEMO were determined by western blot analysis with GST-NEMO used as a loading control. […] Cell lysates were analyzed for activity of the IKK/NF-κB signaling pathway including activation of IKK complex, IκBα, and p65. […] Cell lysates were harvested and analyzed for activation of noncanonical NF-κB signaling, the processing of p100 to p52. […]

[2] = system: mdx mice; experiment: Chronic treatment of mdx mice, CD68 immunostaining (macrophages); type: in vivo, mouse; conditions: for CD68+ cells, number of cells per myofiber: SR12343 30 mg/kg 4 wk, single measures and ave, 30 mg/kg
Procedure: To determine whether SR12343 and SR12460 improve muscle pathology, TA muscle was stained with hematoxylin–eosin to assess inflammatory infiltration, necrosis, central nucleation, and fibrosis. […] In addition, Masson trichrome stain was conducted to further measure muscle fibrosis. Chronic treatment with SR12343 reduced muscle fibrosis (blue) in diaphragm and TA muscle tissues in comparison to control group (Fig 8A & 8B). To further quantitate the extent of inflammation in mdx muscle tissues, diaphragm and TA muscle were immunostained for cluster of differentiation 68 (CD68), a macrophage marker. Treatment with SR12343 reduced the number of CD68^+ cells by almost 50% per myofiber in both diaphragm and TA tissues (Fig 8A & 8B). […] To quantify the average fiber size in an unbiased way, TA muscle was stained with laminin to outline myofibers, and Feret diameter of all myocytes was quantitated in a whole muscle section.
Fig 8 Chronic treatment with NBD mimetics reduces muscle fibrosis by decreasing macrophage infiltration in mdx mice. (A, B) Trichrome and CD68 staining of (A) diaphragm and (B) TA muscle from 7-wk-old, SR12343-treated or -untreated mdx mice. CD68 (red): marker of tissue macrophage; utrophin (green): stain for myofiber; DAPI (blue): nuclei. Trichrome images were taken at the magnification of 4× for TA and 10× for diaphragm. IHC images were taken at 10× for TA and 20× for diaphragm. Representative images were shown for each treatment group. Data were shown as mean +/− SEM. *P < 0.05; **P < 0.01; ***P < 0.001. Underlying data can be found in S1 Data. CD68, cluster of differentiation 68; IHC, immunohistochemistry; NBD, NEMO-binding domain; NEMO, NF-κB essential modulator; TA, tibialis anterior.
The frozen tissue sections were fixed with 4% paraformaldehyde for 1 h and incubated with 1% BSA for blocking. The primary antibodies CD68 (Abcam, Cambridge, MA) and utrophin (Santa Cruz) were applied at 1:200 for 2 h. The secondary antibodies Alexa Fluor 594 and Alexa Fluor 488 were then applied at 1:400 for 1 h. DAPI (1;1000) solution was used to stain the cell nucleus. All the processes were performed at room temperature.

Q: With `O=C(CNc1ccc(Cl)cn1)NCCc1cccc(Br)c1` [SR12343] as the compound, how does the “Disruption of interaction between GST-NEMO and FLAG-IKKβ” value [1] read?
A: able to disrupt

Q: And the “CD68+ cells, number of cells per myofiber” value ([2]; Fig 8A, diaphragm muscle)?
A: 1.156 and 1.07 and 1.196

Q: And the “CD68+ cells, number of cells per myofiber” value ([2]; Fig 8A, diaphragm muscle, mean)?
A: 1.14

Q: And the “CD68+ cells, number of cells per myofiber” value ([2]; Fig 8B, TA muscle)?
A: 0.646 and 0.5862 and 0.6154

Q: What about the “CD68+ cells, number of cells per myofiber” value ([2]; Fig 8B, TA muscle, mean) of the same compound?
A: 0.6159

Q: And the “Reduction of number of CD68+ cells per myofiber” value ([2]; diaphragm and TA tissues)?
A: ~50%
